According to patent US20100267819A1, “PHARMACEUTICAL COMPOSITION FOR DIABETIC NEPHROPATHY AND ITS PREPARATION AND APPLICATION” (Guangzhou Consun Medicine R&D Medicine, priority 2009, published 2010):

Experiments:
[1] = tested on: Rat messangial cell cell line HBZY-1; assay: Hypertrophy of rat mesangial cells cultured under high glucose (HE staining); type: cell-based; settings: high glucose 25 mmol/L, 48 h, extract 0.1 g/L, compounds 1, 0.1, 0.01 μmol/L, co-use 0.06:0.03, 0.05:0.05, 0.03:0.06 μmol/L
Experimental: (§1) Take the rat mesangial cells in log phase growth, prepare into unicell suspension (5×10^4 cells/ml) with 5% DMEM medium of newborn calf serum, inoculate to the 24 well plate coated with coverslip for 1 ml/well (cell quantity: 5×10^4/well), incubated under 5% CO2 incubator at 37° C. for 24 hours, added the DMEM medium without serum, incubated 24 hours to make all the cells to anestrum. Discard the supernatant, added 900 μl DMEM medium and 100 μl different concentration amylaceum (each concentration for 3 repeat) and incubated 24 h, 48 h, 72 h and 96 h, respectively. Observed the modeling results after staining with HE and PAS. […] Put the coverslips pre-treatment by poly-L-lysine into 24-well cell culture plates before added the unicell suspension, then cultured these cells until the step of synchronization. […] Each group repeats for 3 times. Then, all the groups are incubated under 5% CO2 incubator at 37° C. for 48 h. After that, take out of the coverslips for HE staining, PAS staining and immunocytochemistry staining Routine HE Staining, Routine PAS Staining, CTGF Staining

[2] = tested on: Rat messangial cell cell line HBZY-1; assay: Extracellular matrix accrementition of rat mesangial cells cultured under high glucose (PAS staining); type: cell-based; settings: high glucose 25 mmol/L, 48 h, extract 0.1 g/L, compounds 1, 0.1, 0.01 μmol/L, co-use 0.06:0.03, 0.05:0.05, 0.03:0.06 μmol/L
Experimental: as §1

CTGF = CTGF express of rat mesangial cells cultured under high glucose (immunocytochemistry); type: cell-based; settings: high glucose 25 mmol/L, 48 h, CTGF staining; extract 0.1 g/L, compounds 1, 0.1, 0.01 μmol/L, co-use 0.06:0.03, 0.05:0.05, 0.03:0.06 μmol/L
Experimental: as §1, with “Routine HE Staining, Routine PAS Staining, CTGF Staining” left out

db|db mouse [3] = assay: Weight of db|db mouse of diabetic nephropathy; type: in vivo; settings: for Weight: db|db mouse; for weight of db|db mouse: vs model group, P<0.05, intragastric
Experimental: (§2) During the experiment, all the mouse are bred in lamina flow cage, free to food and water. Water and underpad are changed every day to keep the cage clean, and the water, seedstuff, underpad are stationary. […] All the appliances and food are sterilized everyday. […] Moreover, 10 8-week-old B6 mouse are taken as the normal control. Each group is given 0.4 ml corresponding drug in different concertration or physiological saline by intragastric administration for 5 weeks. Determinate the food-intake and water-intake, weigh every week, determinate the blood glucose every week.

db|db mouse [4] = assay: Blood glucose of db|db mouse in diabetic nephropathy; type: in vivo; settings: for Blood glucose value: db|db mouse; for blood glucose of db|db mouse: final phase of administration, vs model group, P<0.05
Experimental: as §2

db|db mouse [5] = assay: Urine volume, urine total protein and urine creatinine in 24 hours of db|db mouse in diabetic nephropathy; type: in vivo; settings: for Total protein / Urine creatinine / Urine volume: 24 hour urine after 5 weeks; for urine creatinine in 24 hours / urine total protein in 24 hours / urine volume in 24 hours: vs model group
Experimental: as §2

db|db mouse [6] = assay: Kidney weight and kidney index of db|db mouse in diabetic nephropathy; type: in vivo; settings: after 5 weeks; for Kidned index: kidney weight/body weight×1000
Experimental: as §2

[7] = 2 weeks, 0.5 mg/kg intragastric
[8] = 2 weeks, 1.0 mg/kg intragastric
[9] = 2 weeks, 2.0 mg/kg intragastric
[10] = 3 weeks, 0.5 mg/kg intragastric
[11] = 3 weeks, 1.0 mg/kg intragastric
[12] = 3 weeks, 2.0 mg/kg intragastric
[13] = 4 weeks, 0.5 mg/kg intragastric
[14] = 4 weeks, 1.0 mg/kg intragastric
[15] = 4 weeks, 2.0 mg/kg intragastric
[16] = 5 weeks, 0.5 mg/kg intragastric
[17] = 5 weeks, 1.0 mg/kg intragastric
[18] = 5 weeks, 2.0 mg/kg intragastric

O=c1ccc2ccc(O)cc2o1 [7-hydroxycoumarin]
hypertrophy of rat mesangial cells induced by high glucose [1]: restrain significantly the hypertrophy
extracellular matrix of rat mesangial cells induced by high glucose [2]: decrease the extracellular matrix
CTGF express of rat mesangial cells induced by high glucose (CTGF): decrease the CTGF express
Weight (db|db mouse [3]; 0 week, 0.5 mg/kg intragastric): 24.5 ± 0.5 g
Weight (db|db mouse [3]; 0 week, 1.0 mg/kg intragastric): 23.4 ± 0.5 g
Weight (db|db mouse [3]; 0 week, 2.0 mg/kg intragastric): 23.7 ± 0.6 g
Weight (db|db mouse [3]; 1 week, 0.5 mg/kg intragastric): 31.5 ± 1.5 g
Weight (db|db mouse [3]; 1 week, 1.0 mg/kg intragastric): 30.2 ± 1.4 g
Weight (db|db mouse [3]; 1 week, 2.0 mg/kg intragastric): 30.3 ± 0.5 g
Weight (db|db mouse [3]; [7]): 35.8 ± 1.8 g
Weight (db|db mouse [3]; [8]): 34.6 ± 1.4 g
Weight (db|db mouse [3]; [9]): 35.5 ± 1.7 g
Weight (db|db mouse [3]; [10]): 39.4 ± 2.0 g
Weight (db|db mouse [3]; [11]): 40.0 ± 2.7 g
Weight (db|db mouse [3]; [12]): 38.6 ± 1.9 g
Weight (db|db mouse [3]; [13]): 43.9 ± 3.1 g
Weight (db|db mouse [3]; [14]): 43.1 ± 2.8 g
Weight (db|db mouse [3]; [15]): 42.3 ± 2.8 g
Weight (db|db mouse [3]; [16]): 46.4 ± 4.6 g
Weight (db|db mouse [3]; [17]): 45.2 ± 4.1 g
Weight (db|db mouse [3]; [18]): 46.1 ± 5.3 g
weight of db|db mouse (db|db mouse [3]; 5 weeks): restrain the weight
Blood glucose value (db|db mouse [4]; 1 week, 0.5 mg/kg intragastric): 13.7 ± 4.1 mmol/L
Blood glucose value (db|db mouse [4]; 1 week, 1.0 mg/kg intragastric): 13.4 ± 4.6 mmol/L
Blood glucose value (db|db mouse [4]; 1 week, 2.0 mg/kg intragastric): 13.0 ± 3.6 mmol/L
Blood glucose value (db|db mouse [4]; [7]): 13.6 ± 2.9 mmol/L
Blood glucose value (db|db mouse [4]; [8]): 13.4 ± 2.6 mmol/L
Blood glucose value (db|db mouse [4]; [9]): 13.1 ± 5.1 mmol/L
Blood glucose value (db|db mouse [4]; [10]): 12.9 ± 2.9 mmol/L
Blood glucose value (db|db mouse [4]; [11]): 13.9 ± 4.3 mmol/L
Blood glucose value (db|db mouse [4]; [12]): 13.7 ± 5.1 mmol/L
Blood glucose value (db|db mouse [4]; [13]): 11.2 ± 4.0 mmol/L
Blood glucose value (db|db mouse [4]; [14]): 11.2 ± 4.4 mmol/L
Blood glucose value (db|db mouse [4]; [15]): 10.1 ± 2.4 mmol/L
Blood glucose value (db|db mouse [4]; [16]): 12.1 ± 1.9 mmol/L
Blood glucose value (db|db mouse [4]; [17]): 10.3 ± 2.0 mmol/L
Blood glucose value (db|db mouse [4]; [18]): 10.6 ± 3.0 mmol/L
blood glucose of db|db mouse (db|db mouse [4]): remarkably decrease the blood glucose
Total protein (db|db mouse [5]; 0.5 mg/kg intragastric): 1.205 ± 0.541 mg
Urine creatinine (db|db mouse [5]; 0.5 mg/kg intragastric): 2.06 ± 0.65 mmol/L
Urine volume (db|db mouse [5]; 0.5 mg/kg intragastric): 1.03 ± 0.28 mL
Total protein (db|db mouse [5]; 1.0 mg/kg intragastric): 0.996 ± 0.338 mg
Urine creatinine (db|db mouse [5]; 1.0 mg/kg intragastric): 2.30 ± 0.71 mmol/L
Urine volume (db|db mouse [5]; 1.0 mg/kg intragastric): 0.72 ± 0.30 mL
Total protein (db|db mouse [5]; 2.0 mg/kg intragastric): 1.147 ± 0.305 mg
Urine creatinine (db|db mouse [5]; 2.0 mg/kg intragastric): 2.79 ± 0.54 mmol/L
Urine volume (db|db mouse [5]; 2.0 mg/kg intragastric): 0.74 ± 0.33 mL
urine creatinine in 24 hours (db|db mouse [5]): elevate the urine creatinine
urine total protein in 24 hours (db|db mouse [5]): decrease
urine volume in 24 hours (db|db mouse [5]): decrease the urine volume
kidney index (db|db mouse [6]): obviously decrease
kidney weight (db|db mouse [6]): obviously decrease
Kidned weight (db|db mouse [6]; 0.5 mg/kg intragastric): 0.28 ± 0.04 g
Kidned index (db|db mouse [6]; 0.5 mg/kg intragastric): 11.8 ± 1.5 ‰
Kidned weight (db|db mouse [6]; 1.0 mg/kg intragastric): 0.26 ± 0.03 g
Kidned weight (db|db mouse [6]; 2.0 mg/kg intragastric): 0.27 ± 0.02 g
Kidned index (db|db mouse [6]; 2.0 mg/kg intragastric): 9.4 ± 0.3 ‰

COc1cc2ccc(=O)oc2cc1O [7-hydroxy-6-methoxycomarin, 7-hydroxy-6-methoxycoumarin]
hypertrophy of rat mesangial cells induced by high glucose [1]: restrain significantly the hypertrophy
extracellular matrix of rat mesangial cells induced by high glucose [2]: decrease the extracellular matrix
CTGF express of rat mesangial cells induced by high glucose (CTGF): decrease the CTGF express
Weight (db|db mouse [3]; 0 week, 0.5 mg/kg intragastric): 23.2 ± 0.6 g
Weight (db|db mouse [3]; 0 week, 1.0 mg/kg intragastric): 24.1 ± 0.5 g
Weight (db|db mouse [3]; 0 week, 2.0 mg/kg intragastric): 23.9 ± 0.5 g
Weight (db|db mouse [3]; 1 week, 0.5 mg/kg intragastric): 30.6 ± 1.2 g
Weight (db|db mouse [3]; 1 week, 1.0 mg/kg intragastric): 31.8 ± 1.0 g
Weight (db|db mouse [3]; 1 week, 2.0 mg/kg intragastric): 32.0 ± 1.3 g
Weight (db|db mouse [3]; [7]): 36.4 ± 1.5 g
Weight (db|db mouse [3]; [8]): 33.7 ± 1.4 g
Weight (db|db mouse [3]; [9]): 34.3 ± 1.9 g
Weight (db|db mouse [3]; [10]): 40.1 ± 2.5 g
Weight (db|db mouse [3]; [11]): 38.8 ± 1.4 g
Weight (db|db mouse [3]; [12]): 39.5 ± 1.8 g
Weight (db|db mouse [3]; [13]): 43.0 ± 2.1 g
Weight (db|db mouse [3]; [14]): 42.5 ± 2.5 g
Weight (db|db mouse [3]; [15]): 44.0 ± 3.2 g
Weight (db|db mouse [3]; [16]): 47.0 ± 3.9 g
Weight (db|db mouse [3]; [17]): 45.8 ± 3.0 g
Weight (db|db mouse [3]; [18]): 45.7 ± 4.5 g
weight of db|db mouse (db|db mouse [3]; 5 weeks): restrain the weight
Blood glucose value (db|db mouse [4]; 1 week, 0.5 mg/kg intragastric): 13.3 ± 4.5 mmol/L
Blood glucose value (db|db mouse [4]; 1 week, 1.0 mg/kg intragastric): 13.5 ± 4.0 mmol/L
Blood glucose value (db|db mouse [4]; 1 week, 2.0 mg/kg intragastric): 13.8 ± 4.7 mmol/L
Blood glucose value (db|db mouse [4]; [7]): 13.4 ± 2.7 mmol/L
Blood glucose value (db|db mouse [4]; [8]): 13.0 ± 3.2 mmol/L
Blood glucose value (db|db mouse [4]; [9]): 13.3 ± 2.7 mmol/L
Blood glucose value (db|db mouse [4]; [10]): 13.5 ± 3.2 mmol/L
Blood glucose value (db|db mouse [4]; [11]): 12.6 ± 4.8 mmol/L
Blood glucose value (db|db mouse [4]; [12]): 13.1 ± 4.7 mmol/L
Blood glucose value (db|db mouse [4]; [13]): 12.1 ± 3.6 mmol/L
Blood glucose value (db|db mouse [4]; [14]): 10.8 ± 2.5 mmol/L
Blood glucose value (db|db mouse [4]; [15]): 10.4 ± 3.9 mmol/L
Blood glucose value (db|db mouse [4]; [16]): 13.0 ± 2.2 mmol/L
Blood glucose value (db|db mouse [4]; [17]): 10.4 ± 2.5 mmol/L
Blood glucose value (db|db mouse [4]; [18]): 11.3 ± 4.4 mmol/L
blood glucose of db|db mouse (db|db mouse [4]): remarkably decrease the blood glucose
Total protein (db|db mouse [5]; 0.5 mg/kg intragastric): 1.398 ± 0.372 mg
Urine creatinine (db|db mouse [5]; 0.5 mg/kg intragastric): 1.85 ± 0.56 mmol/L
Urine volume (db|db mouse [5]; 0.5 mg/kg intragastric): 0.95 ± 0.34 mL
Total protein (db|db mouse [5]; 1.0 mg/kg intragastric): 1.102 ± 0.249 mg
Urine creatinine (db|db mouse [5]; 1.0 mg/kg intragastric): 3.20 ± 0.85 mmol/L
Urine volume (db|db mouse [5]; 1.0 mg/kg intragastric): 0.75 ± 0.25 mL
Total protein (db|db mouse [5]; 2.0 mg/kg intragastric): 0.878 ± 0.352 mg
Urine creatinine (db|db mouse [5]; 2.0 mg/kg intragastric): 2.81 ± 0.76 mmol/L
Urine volume (db|db mouse [5]; 2.0 mg/kg intragastric): 0.78 ± 0.31 mL
urine creatinine in 24 hours (db|db mouse [5]): elevate the urine creatinine
urine total protein in 24 hours (db|db mouse [5]): decrease
urine volume in 24 hours (db|db mouse [5]): decrease the urine volume
kidney index (db|db mouse [6]): obviously decrease
kidney weight (db|db mouse [6]): obviously decrease
Kidned weight (db|db mouse [6]; 0.5 mg/kg intragastric): 0.29 ± 0.02 g
Kidned index (db|db mouse [6]; 0.5 mg/kg intragastric): 12.6 ± 1.0 ‰
Kidned weight (db|db mouse [6]; 1.0 mg/kg intragastric): 0.25 ± 0.03 g
Kidned weight (db|db mouse [6]; 2.0 mg/kg intragastric): 0.24 ± 0.04 g
Kidned index (db|db mouse [6]; 2.0 mg/kg intragastric): 9.1 ± 1.7 ‰
